# Literature values, collected in patent US20080255091A1, “COMPOUNDS TO TREAT AMYLOIDOSIS AND PREVENT DEATH OF BETA-CELLS IN TYPE 2 DIABETES MELLITUS” (ASTRUM THERAPEUTICS PTY LTD., priority 2005, published 2008).
# Tested on: β-cell death induced by a fibrillogenic form of IAPP
row,Molecule,prevention of β-cell death induced by a fibrillogenic form of IAPP
1,Nc1c(/N=N/c2ccc(-c3ccc(/N=N/c4cc(S(=O)(=O)O)c5ccccc5c4N)cc3)cc2)cc(S(=O)(=O)O)c2ccccc12 [Congo Red],completely or partially prevented
2,"SNNFGA: the peptide SNNFGA, anti-amyloidosis agent from the literature (Islet amyloid polypeptide; UniProt P10997 53-58, looked up, fragment)",completely or partially prevented
